From ChEMBL document CHEMBL3044592, “Synthesis, antiproliferation, and docking studies of N-phenyl-lipoamide and 8-mercapto-N-phenyloctanamide derivatives: effects of C6 position thiol moiety” (2012)

Assays:
Experiment in all cases: cells
Assay type in all cases: functional
Conditions in all cases: Homo sapiens, read-out: GI
KB = tested on: KB
Description: Growth inhibition of Homo sapiens (human) KB cells at 100 ug/ml by MTT assay

Bel-7402 = tested on: Bel-7402
Description: Growth inhibition of Homo sapiens (human) Bel7402 cells at 100 ug/ml by MTT assay

NCI-H460 = tested on: NCI-H460
Description: Growth inhibition of Homo sapiens (human) NCI-H460 cells at 100 ug/ml by MTT assay

## CC(=O)SCCCCCCCC(=O)Nc1ccccc1
KB
  inhibition of growth at 100 µg/mL: 77%
Bel-7402
  inhibition of growth at 100 µg/mL: 66.3%
NCI-H460
  inhibition of growth at 100 µg/mL: 82.3%

## O=C(CCCCCCCS)Nc1ccccc1 [8-MERCAPTO-OCTANOIC ACID PHENYLAMIDE]
KB
  inhibition of growth at 100 µg/mL: 18.6%
NCI-H460
  inhibition of growth at 100 µg/mL: 32.4%
